According to patent US4618612A (Medosan Industrie Biochimiche Riunite S.p.A., priority 1983, dated 1986):

Tests used:
[1] = tested on: rat platelet-rich plasma (ADP-induced platelet aggregation); assay: Anti-platelet aggregation activity in vitro (Born's method), rat platelet-rich plasma, ADP-induced; format: cell-based
Protocol: Preparations (A), (B), (C), (D), (E) and (F) were administered "in vivo" orally and/or parenterally in 0.5% carboxymethylcellulose suspensions in physiological saline at neutral pH. When tested "in vitro", they were finely dispersed in neutral pH physiological saline.
This was studied "in vitro" following Born's method (Born G. W. R., Nature, 194, 937 (1962)) and inducing platelet aggregation with ADP.
Platelet-rich plasma was obtained by centrifugation for 10 minutes at 2,000 rpm of 9 parts rat blood to 1 part 3.13% sodium citrate solution. In performing the aggregation test, 0.2 ml of platelet rich plasm was mixed with a 0.9% NaCl solution to which the test substance was added to a final volume of 0.6 ml; the resulting mixture was incubated at 27° C. for 3 minutes. After inducement with ADP, aggregation was measured continuously with an Elvi 840 Aggregometer (Elvi Logos-Milan) to follow its course. The anti-aggregant effects were determined from the difference in the light transmission of the sample with respect to an ADP control.
Table I reports the platelet aggregation inhibition using different doses of the test compounds at a constant ADP concentration.

carragenin-induced edema = assay: Carragenin-induced edema test (Winter); format: in vivo, rat
Protocol: This effect was measured with an experimental model reproducing acute inflammation in rats: the carragenin-induced edema test according to C.

gastric mucosa = assay: Gastric tolerance (ulcerogenic activity); format: in vivo, male Wistar rats; settings: 4 days; for Mean Severity: scale 0-5; for Gastric Damage index: vehicle 8
Protocol: This was studied by conducting tests of ulcerogenic activity in male Wistar rats, weighing 180 g on the average, in groups of 10 animals each. Three doses of each substance were given, and one group of animals was treated with vehicle only in a volume of 10 ml/kg bodyweight. Each dose was given orally for four consecutive days; on the fifth day, the rats were killed and autopsied. The ulcerogenic effect was assessed according to the following scale:
(1) each hemorrhage point ≥1 mm was evaluated as 1 lesion
(2) hemorrhage points smaller than 1 mm were counted as follows:
(b) from 1 to 19:2 lesions
(c) from 1 to 29:3 lesions
(2) gastric mucosa irritation: 1
(3) hemorrahge points <1 mm: 2
(4) hemorrhage points between 1 and 3 mm: 3
(5) hemorrhage points >3 mm: 4
This scale was used to calculate the following gastric damage index: [formula]

in vivo [2] = settings: mouse, mice
in vivo [3] = settings: rat, rats
Solubility = format: physicochemical; settings: common organic solvents
[4] = ADP 2 μmol/l, dose 1 V/ml (Table II)
[5] = ADP 5 μmol/l, dose 1 V/ml (Table II)

For `Cc1cc(CC(=O)OCCn2cnc3c2c(=O)n(C)c(=O)n3C)n(C)c1C(=O)c1ccc(Cl)cc1` [(B), 1,4-Dimethyl-5-p-chlorobenzoylpyrrol-2-acetate of 7-(2-oxyethyl)theophylline], the “% Inhibition” value [1, 4] was 31%, the “% Inhibition” value [1, 5] was 25% and the “% Inhibition” value ([1]; ADP 7.08 μmol/l, dose 1 /ml (Table I)) was 20%. The “% Inhibition” value ([1]; ADP 7.08 μmol/l, dose 2,5 /ml (Table I)) was 70%, the “% Inhibition” value ([1]; ADP 7.08 μmol/l, dose 5 /ml (Table I)) was 90% and the “% Edema Inhibition” value (carragenin-induced edema; I.P., 5 mg/kg, 3 h) was 65,2%. The “% Edema Inhibition” value (carragenin-induced edema; I.P., 5 mg/kg, 6 h) was 60,5%, the “% Edema Inhibition” value (carragenin-induced edema; I.P., 5 mg/kg, 24 h) was 10,5% and the “% Edema Inhibition” value (carragenin-induced edema; I.P., 10 mg/kg, 3 h) was 70,6%. The “% Edema Inhibition” value (carragenin-induced edema; I.P., 10 mg/kg, 6 h) was 71,3%, the “% Edema Inhibition” value (carragenin-induced edema; I.P., 10 mg/kg, 24 h) was 15,0% and the “% Edema Inhibition” value (carragenin-induced edema; I.P., 2,5 mg/kg, 3 h) was 52,0%. For the same molecule, the “% Edema Inhibition” value (carragenin-induced edema; I.P., 2,5 mg/kg, 6 h) was 50,0%, the “% Edema Inhibition” value (carragenin-induced edema; I.P., 2,5 mg/kg, 24 h) was 5,1% and the “% Edema Inhibition” value (carragenin-induced edema; OS, 5 mg/kg, 3 h) was 66,0%. For the same molecule, the “% Edema Inhibition” value (carragenin-induced edema; OS, 5 mg/kg, 6 h) was 60,0%, the “% Edema Inhibition” value (carragenin-induced edema; OS, 5 mg/kg, 24 h) was 12,0% and the “% Edema Inhibition” value (carragenin-induced edema; OS, 10 mg/kg, 3 h) was 73,0%. The “% Edema Inhibition” value (carragenin-induced edema; OS, 10 mg/kg, 6 h) was 70,3%, the “% Edema Inhibition” value (carragenin-induced edema; OS, 10 mg/kg, 24 h) was 20,0% and the “% Edema Inhibition” value (carragenin-induced edema; OS, 2,5 mg/kg, 3 h) was 56,4%. For the same molecule, the “% Edema Inhibition” value (carragenin-induced edema; OS, 2,5 mg/kg, 6 h) was 53,0%, the “% Edema Inhibition” value (carragenin-induced edema; OS, 2,5 mg/kg, 24 h) was 10,0% and the “% incidence 10” value (gastric mucosa; 5 mg/kg oral) was 8 %/10. The “Gastric Damage index, second figure (after +; difference from vehicle)” value (gastric mucosa; 5 mg/kg oral) was 5, the “Mean No. lesions” value (gastric mucosa; 5 mg/kg oral) was 2,5 and the “Mean Severity” value (gastric mucosa; 5 mg/kg oral) was 2,5. The “Gastric Damage index” value (gastric mucosa; 5 mg/kg oral) was 13, the “% incidence 10” value (gastric mucosa; 10 mg/kg oral) was 9 %/10 and the “Gastric Damage index, second figure (after +; difference from vehicle)” value (gastric mucosa; 10 mg/kg oral) was 8. The “Mean No. lesions” value (gastric mucosa; 10 mg/kg oral) was 3, the “Mean Severity” value (gastric mucosa; 10 mg/kg oral) was 4 and the “Gastric Damage index” value (gastric mucosa; 10 mg/kg oral) was 16. The “% incidence 10” value (gastric mucosa; 2,5 mg/kg oral) was 7 %/10, the “Gastric Damage index, second figure (after +; difference from vehicle)” value (gastric mucosa; 2,5 mg/kg oral) was 2 and the “Mean No. lesions” value (gastric mucosa; 2,5 mg/kg oral) was 1. The “Mean Severity” value (gastric mucosa; 2,5 mg/kg oral) was 2, the “Gastric Damage index” value (gastric mucosa; 2,5 mg/kg oral) was 10 and the LD50 (in vivo [2]; ip, I.P.) was 140 mg/kg. It also gave an LD50 (in vivo [2]; po, OS) of 160 mg/kg, an LD50 (in vivo [3]; ip, I.P.) of 100 mg/kg and an LD50 (in vivo [3]; po, OS) of 150 mg/kg. The Solubility (Solubility) was “Soluble in common organic solvents”.

For `Cc1ccc(C(=O)c2ccc(CC(=O)OC(Cn3cnc4c3c(=O)n(C)c(=O)n4C)Cn3cnc4c3c(=O)n(C)c(=O)n4C)n2C)cc1` [(F)], the “% Inhibition” value [1, 4] was 32%, the “% Inhibition” value [1, 5] was 23% and the “% Edema Inhibition” value (carragenin-induced edema; I.P., 10 mg/kg, 3 h) was 43,8%. The “% Edema Inhibition” value (carragenin-induced edema; I.P., 10 mg/kg, 6 h) was 34,8%, the “% Edema Inhibition” value (carragenin-induced edema; I.P., 10 mg/kg, 24 h) was 0,0% and the “% Edema Inhibition” value (carragenin-induced edema; I.P., 50 mg/kg, 3 h) was 56,0%. The “% Edema Inhibition” value (carragenin-induced edema; I.P., 50 mg/kg, 6 h) was 33,0%, the “% Edema Inhibition” value (carragenin-induced edema; I.P., 50 mg/kg, 24 h) was 0,0% and the “% Edema Inhibition” value (carragenin-induced edema; I.P., 100 mg/kg, 3 h) was 78,6%. The “% Edema Inhibition” value (carragenin-induced edema; I.P., 100 mg/kg, 6 h) was 65,6%, the “% Edema Inhibition” value (carragenin-induced edema; I.P., 100 mg/kg, 24 h) was 15,8% and the “% Edema Inhibition” value (carragenin-induced edema; OS, 10 mg/kg, 3 h) was 23,9%. The “% Edema Inhibition” value (carragenin-induced edema; OS, 10 mg/kg, 6 h) was 24,0%, the “% Edema Inhibition” value (carragenin-induced edema; OS, 10 mg/kg, 24 h) was 0,0% and the “% Edema Inhibition” value (carragenin-induced edema; OS, 50 mg/kg, 3 h) was 47,0%. The “% Edema Inhibition” value (carragenin-induced edema; OS, 50 mg/kg, 6 h) was 46,0%, the “% Edema Inhibition” value (carragenin-induced edema; OS, 50 mg/kg, 24 h) was 0,0% and the “% Edema Inhibition” value (carragenin-induced edema; OS, 100 mg/kg, 3 h) was 66,0%. For the same molecule, the “% Edema Inhibition” value (carragenin-induced edema; OS, 100 mg/kg, 6 h) was 66,0%, the “% Edema Inhibition” value (carragenin-induced edema; OS, 100 mg/kg, 24 h) was 12,0% and the LD50 (in vivo [2]; ip, I.P.) was 1240 mg/kg. For the same molecule, the LD50 (in vivo [2]; po, OS) was 1680 mg/kg, the LD50 (in vivo [3]; ip, I.P.) was 1050 mg/kg and the LD50 (in vivo [3]; po, OS) was 1500 mg/kg.

For `Cc1ccc(C(=O)c2ccc(CC(=O)NCC(=O)OCCn3cnc4c3c(=O)n(C)c(=O)n4C)n2C)cc1` [(E)], the “% Inhibition” value [1, 4] was 35%, the “% Inhibition” value [1, 5] was 29% and the “% Edema Inhibition” value (carragenin-induced edema; I.P., 10 mg/kg, 3 h) was 31,8%. For the same molecule, the “% Edema Inhibition” value (carragenin-induced edema; I.P., 10 mg/kg, 6 h) was 29,0%, the “% Edema Inhibition” value (carragenin-induced edema; I.P., 10 mg/kg, 24 h) was 0,0% and the “% Edema Inhibition” value (carragenin-induced edema; I.P., 50 mg/kg, 3 h) was 56,9%. The “% Edema Inhibition” value (carragenin-induced edema; I.P., 50 mg/kg, 6 h) was 54,8%, the “% Edema Inhibition” value (carragenin-induced edema; I.P., 50 mg/kg, 24 h) was 12,0% and the “% Edema Inhibition” value (carragenin-induced edema; I.P., 100 mg/kg, 3 h) was 80,0%. The “% Edema Inhibition” value (carragenin-induced edema; I.P., 100 mg/kg, 6 h) was 76,9%, the “% Edema Inhibition” value (carragenin-induced edema; I.P., 100 mg/kg, 24 h) was 23,0% and the “% Edema Inhibition” value (carragenin-induced edema; OS, 10 mg/kg, 3 h) was 34,0%. The “% Edema Inhibition” value (carragenin-induced edema; OS, 10 mg/kg, 6 h) was 33,8%, the “% Edema Inhibition” value (carragenin-induced edema; OS, 10 mg/kg, 24 h) was 0,0% and the “% Edema Inhibition” value (carragenin-induced edema; OS, 50 mg/kg, 3 h) was 54,4%. The “% Edema Inhibition” value (carragenin-induced edema; OS, 50 mg/kg, 6 h) was 49,8%, the “% Edema Inhibition” value (carragenin-induced edema; OS, 50 mg/kg, 24 h) was 10,0% and the “% Edema Inhibition” value (carragenin-induced edema; OS, 100 mg/kg, 3 h) was 78,8%. For the same molecule, the “% Edema Inhibition” value (carragenin-induced edema; OS, 100 mg/kg, 6 h) was 79,0%, the “% Edema Inhibition” value (carragenin-induced edema; OS, 100 mg/kg, 24 h) was 32,6% and the LD50 (in vivo [2]; ip, I.P.) was 1100 mg/kg. For the same molecule, the LD50 (in vivo [2]; po, OS) was 1400 mg/kg, the LD50 (in vivo [3]; ip, I.P.) was 987 mg/kg and the LD50 (in vivo [3]; po, OS) was 1340 mg/kg.
